Reference: PubChem BioAssay AID248 (DTP/NCI, 2004)
Where “and” joins values, the source holds several entries; their conditions need not be identical. Identical values can stand only once. Inconclusive results and toxic doses are left out.

System: L1210 leukemia ip in BDF1 mice, survival T/C
Test: NCI In Vivo Anticancer Drug Screen. Data for tumor model L1210 Leukemia (intraperitoneal) in B6D2F1 (BDF1) mice
Conditions: endpoint: mean survival time, higher = longer survival
Outline: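 In this screen, tumor-bearing mice given compound are compared to those given vehicle, and their survival values are reported as a treated-to-control quotient.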

[1] = dose: 100.0 mg/kg/injection, schedule: Q04DX002 (ip), vehicle: saline with Tween-80
[2] = dose: 200.0 mg/kg/injection, schedule: Q04DX002 (ip), vehicle: saline with Tween-80
[3] = dose: 400.0 mg/kg/injection, schedule: Q04DX002 (ip), vehicle: saline with Tween-80
[4] = dose: 100.0 mg/kg/injection, schedule: Q01DX009 (ip), vehicle: saline
[5] = dose: 100.0 mg/kg/injection, schedule: Q04DX003 (ip), vehicle: saline with Tween-80
[6] = dose: 200.0 mg/kg/injection, schedule: Q04DX003 (ip), vehicle: saline with Tween-80
[7] = dose: 400.0 mg/kg/injection, schedule: Q04DX003 (ip), vehicle: saline with Tween-80
[8] = dose: 100.0 mg/kg/injection, schedule: Q04DX003 (ip), vehicle: Klucel (hydroxypropylcellulose) (HPC)
[9] = dose: 200.0 mg/kg/injection, schedule: Q04DX003 (ip), vehicle: Klucel (hydroxypropylcellulose) (HPC)
[10] = dose: 400.0 mg/kg/injection, schedule: Q04DX003 (ip), vehicle: Klucel (hydroxypropylcellulose) (HPC)
[11] = dose: 100.0 mg/kg/injection, schedule: Q01DX001 (ip), vehicle: saline
[12] = dose: 200.0 mg/kg/injection, schedule: Q01DX001 (ip), vehicle: saline
[13] = dose: 400.0 mg/kg/injection, schedule: Q01DX001 (ip), vehicle: saline

Which results are given for Nc1c(Cl)c(Cl)c2c(c1Cl)/C(=N/O)c1cc(Cl)ccc1-2?
T/C (dose: 100.0 mg/kg/injection, schedule: Q01DX001 (ip), vehicle: carboxymethylcellulose (CMC)): 95 % of control; T/C (dose: 200.0 mg/kg/injection, schedule: Q01DX001 (ip), vehicle: carboxymethylcellulose (CMC)): 95 % of control; T/C (dose: 400.0 mg/kg/injection, schedule: Q01DX001 (ip), vehicle: carboxymethylcellulose (CMC)): 103 % of control

For Cc1cccc2c1C(=S)NC2=O, which T/C [1] is on record?
The T/C was 103 % of control.

What about the T/C [2] of the same compound?
The T/C was 100 % of control.

What about the T/C [3] of the same compound?
The T/C was 89 % of control.

Which T/C (dose: 2.0 mg/kg/injection, schedule: Q01DX001 (ip), vehicle: other) does the source give for CCC(=C\c1sc2ccc3ccccc3c2[n+]1CC)/C=C1/Sc2ccc3ccccc3c2N1CC here?
The T/C was 117 % of control.

And the T/C (dose: 4.0 mg/kg/injection, schedule: Q01DX001 (ip), vehicle: other)?
The T/C was 95 % of control.

What about the T/C (dose: 8.0 mg/kg/injection, schedule: Q01DX001 (ip), vehicle: other) of the same compound?
The T/C was 88 % of control.

Which results are given for O=C(Nc1ccc(C2=NCCN2)cc1)c1ccc(NC(=O)c2ccc(C3=NCCN3)cc2)cc1?
T/C (dose: 1.88 mg/kg/injection, schedule: Q01DX Z (ip), vehicle: saline): 101 % of control; T/C (dose: 3.75 mg/kg/injection, schedule: Q01DX Z (ip), vehicle: saline): 106 % of control; T/C (dose: 7.5 mg/kg/injection, schedule: Q01DX Z (ip), vehicle: saline): 117 % of control; T/C (dose: 15.0 mg/kg/injection, schedule: Q01DX009 (ip), vehicle: saline): 119 % of control; T/C (dose: 30.0 mg/kg/injection, schedule: Q01DX009 (ip), vehicle: saline): 190 % of control; T/C (dose: 30.0 mg/kg/injection, schedule: Q01DX Z (ip), vehicle: carboxymethylcellulose (CMC)): 203 % of control; T/C (dose: 50.0 mg/kg/injection, schedule: Q01DX007 (oral), vehicle: carboxymethylcellulose (CMC)): 103 % of control; T/C (dose: 60.0 mg/kg/injection, schedule: Q01DX009 (ip), vehicle: saline): 197 % of control and 232 % of control; T/C (dose: 62.5 mg/kg/injection, schedule: Q## X010 (oral), vehicle: saline): 101 % of control; T/C (dose: 100.0 mg/kg/injection, schedule: Q01DX007 (oral), vehicle: carboxymethylcellulose (CMC)): 100 % of control; T/C (dose: 120.0 mg/kg/injection, schedule: Q01DX009 (ip), vehicle: saline): 117 % of control; T/C (dose: 125.0 mg/kg/injection, schedule: Q## X010 (oral), vehicle: saline): 102 % of control; T/C (dose: 200.0 mg/kg/injection, schedule: Q01DX007 (oral), vehicle: carboxymethylcellulose (CMC)): 108 % of control; T/C (dose: 400.0 mg/kg/injection, schedule: Q01DX007 (oral), vehicle: carboxymethylcellulose (CMC)): 94 % of control; T/C (dose: 500.0 mg/kg/injection, schedule: Q## X010 (oral), vehicle: saline): 101 % of control; T/C (dose: 800.0 mg/kg/injection, schedule: Q01DX007 (oral), vehicle: carboxymethylcellulose (CMC)): 101 % of control

What does the source list for OCC1OC(n2c3ccccc3c3ccccc32)C(O)C(O)C1O (configuration not stated)?
T/C (dose: 60.0 mg/kg/injection, schedule: Q04DX002 (ip), vehicle: DMSO): 108 % of control; T/C (dose: 120.0 mg/kg/injection, schedule: Q04DX002 (ip), vehicle: DMSO): 102 % of control

For C/C=C/C=N/NC(=O)c1ccc[n+](C)c1, which T/C (dose: 50.0 mg/kg/injection, schedule: Q01DX009 (ip), vehicle: saline) is on record?
The T/C was 112 % of control.

What about the T/C [4] of the same compound?
The T/C was 104 % of control.

And the T/C (dose: 200.0 mg/kg/injection, schedule: Q01DX009 (ip), vehicle: saline)?
Its T/C is 112 % of control.

CCCCC#C/C(C)=N\Nc1ccc([N+](=O)[O-])cc1[N+](=O)[O-] was tested. Which T/C (dose: 50.0 mg/kg/injection, schedule: Q04DX002 (ip), vehicle: saline with Tween-80) did it give?
The T/C was 98 % of control.

What about the T/C [1] of the same compound?
The T/C was 173 % of control.

C/C(=C\Br)CBr was tested. Which T/C (dose: 100.0 mg/kg/injection, schedule: Q01DX009 (ip), vehicle: acetone) did it give?
Its T/C is 97 % of control.

Which T/C (dose: 50.0 mg/kg/injection, schedule: Q01DX009 (ip), vehicle: saline with Tween-80) does the source give for CC(C)CSC(C)C here?
Its T/C is 98 % of control.

And the T/C (dose: 100.0 mg/kg/injection, schedule: Q01DX009 (ip), vehicle: saline with Tween-80)?
Its T/C is 96 % of control.

And the T/C [5]?
The T/C was 107 % of control.

What about the T/C (dose: 200.0 mg/kg/injection, schedule: Q01DX009 (ip), vehicle: saline with Tween-80) of the same compound?
The T/C was 91 % of control.

And the T/C [6]?
The T/C was 105 % of control.

And the T/C [7]?
The T/C was 87 % of control.

How did the T/C (dose: 100.0 mg/kg/injection, schedule: Q01DX001 (ip), vehicle: Klucel (hydroxypropylcellulose) (HPC)) turn out when CCOC(=O)C(Cc1ccc2ccccc2n1)C(=O)OCC was run?
The T/C was 100 % of control.

And the T/C (dose: 200.0 mg/kg/injection, schedule: Q01DX001 (ip), vehicle: Klucel (hydroxypropylcellulose) (HPC))?
Its T/C is 106 % of control.

What about the T/C (dose: 400.0 mg/kg/injection, schedule: Q01DX001 (ip), vehicle: Klucel (hydroxypropylcellulose) (HPC)) of the same compound?
Its T/C is 100 % of control.

CCCCNC(C)(C)C1(c2ccc(Cl)cc2)SSC(c2ccc(Cl)cc2)(C(C)(C)NCCCC)SS1 (configuration not stated) was tested. Which T/C (dose: 100.0 mg/kg/injection, schedule: Q01DX009 (ip), vehicle: Klucel (hydroxypropylcellulose) (HPC)) did it give?
Its T/C is 99 % of control.

What about the T/C [8] of the same compound?
The T/C was 93 % of control.

And the T/C (dose: 200.0 mg/kg/injection, schedule: Q01DX009 (ip), vehicle: Klucel (hydroxypropylcellulose) (HPC))?
Its T/C is 99 % of control.

And the T/C [9]?
The T/C was 101 % of control.

And the T/C [10]?
The T/C was 97 % of control.

With [N-]=[N+]=NC(=O)C1C(c2ccccc2)=C1c1ccccc1 as the compound, how does the T/C (dose: 100.0 mg/kg/injection, schedule: Q01DX001 (ip), vehicle: steriod suspending solution) read?
The T/C was 93 % of control.

And the T/C (dose: 200.0 mg/kg/injection, schedule: Q01DX001 (ip), vehicle: steriod suspending solution)?
The T/C was 106 % of control.

And the T/C (dose: 400.0 mg/kg/injection, schedule: Q01DX001 (ip), vehicle: steriod suspending solution)?
The T/C was 98 % of control.

O=C(Nc1ccc(Cl)cc1)Nc1cccc2nsnc12 was tested. Which T/C [1] did it give?
The T/C was 97 % of control.

What about the T/C [2] of the same compound?
The T/C was 93 % of control.

What about the T/C [3] of the same compound?
Its T/C is 90 % of control.

What does the source list for CC(OC(=O)CCN1CC1)C1CC1 (configuration not stated)?
T/C (dose: 2.5 mg/kg/injection, schedule: Q01DX009 (ip), vehicle: Klucel (hydroxypropylcellulose) (HPC)): 103 % of control; T/C (dose: 5.0 mg/kg/injection, schedule: Q01DX009 (ip), vehicle: Klucel (hydroxypropylcellulose) (HPC)): 102 % of control; T/C (dose: 10.0 mg/kg/injection, schedule: Q01DX009 (ip), vehicle: Klucel (hydroxypropylcellulose) (HPC)): 100 % of control; T/C (dose: 20.0 mg/kg/injection, schedule: Q01DX009 (ip), vehicle: Klucel (hydroxypropylcellulose) (HPC)): 101 % of control; T/C (dose: 20.0 mg/kg/injection, schedule: Q04DX003 (ip), vehicle: Klucel (hydroxypropylcellulose) (HPC)): 103 % of control; T/C (dose: 40.0 mg/kg/injection, schedule: Q04DX003 (ip), vehicle: Klucel (hydroxypropylcellulose) (HPC)): 93 % of control; T/C (dose: 80.0 mg/kg/injection, schedule: Q04DX003 (ip), vehicle: Klucel (hydroxypropylcellulose) (HPC)): 101 % of control; T/C [8]: 87 % of control

What does the source list for C=CCc1ccc(OCC(N)=O)c(OC)c1?
T/C [5]: 107 % of control; T/C [6]: 107 % of control; T/C [7]: 109 % of control

Which T/C [11] does the source give for CCCCOCCCNC(F)(F)C(=O)Nc1ccc(S(=O)(=O)c2ccc(NC(=O)C(F)(F)NCCCOCCCC)cc2)cc1 here?
Its T/C is 113 % of control.

And the T/C [12]?
The T/C was 97 % of control.

What about the T/C [13] of the same compound?
Its T/C is 94 % of control.

S=C([S][Sn]([c]1ccccc1)([c]1ccccc1)[c]1ccccc1)N1CCOCC1 was tested. Which T/C [8] did it give?
The T/C was 100 % of control.

And the T/C [9]?
Its T/C is 96 % of control.

And the T/C [10]?
The T/C was 94 % of control.

CCC(C)C(CCN(CC)CC)(CNC(=O)CN(CC)CC)c1cccc2ccccc12 (configuration not stated) was tested. Which T/C [4] did it give?
The T/C was 97 % of control.

Which T/C [11] does the source give for NCCCCC(=O)NC(CCCCNC(=O)OCc1ccccc1)C(=O)NCCCCC(=O)NC(CCCCNC(=O)OCc1ccccc1)C(=O)NCCCCC(=O)NC(CCCCNC(=O)OCc1ccccc1)C(=O)NCCCCC(=O)NC(CCCCNC(=O)OCc1ccccc1)C(=O)NCCCCC(=O)NC(CCCCNC(=O)OCc1ccccc1)C(=O)NCCCCC(=O)NC(CCCCNC(=O)OCc1ccccc1)C(=O)NCCCCC(=O)NC(CCCCNC(=O)OCc1ccccc1)C(=O)O (configuration not stated) here?
The T/C was 92 % of control.

And the T/C [12]?
The T/C was 90 % of control.

What about the T/C [13] of the same compound?
Its T/C is 95 % of control.

CCOC(=O)Cc1cc(=O)c2cc(OC)ccc2[nH]1 was tested. Which T/C (dose: 75.0 mg/kg/injection, schedule: Q01DX001 (ip), vehicle: saline) did it give?
The T/C was 107 % of control.

What about the T/C (dose: 75.0 mg/kg/injection, schedule: Q04DX003 (ip), vehicle: saline) of the same compound?
The T/C was 105 % of control.

What about the T/C (dose: 150.0 mg/kg/injection, schedule: Q01DX001 (ip), vehicle: saline) of the same compound?
The T/C was 91 % of control.

What about the T/C (dose: 150.0 mg/kg/injection, schedule: Q04DX003 (ip), vehicle: saline) of the same compound?
Its T/C is 100 % of control.

What about the T/C (dose: 300.0 mg/kg/injection, schedule: Q01DX001 (ip), vehicle: saline) of the same compound?
Its T/C is 94 % of control.

And the T/C (dose: 300.0 mg/kg/injection, schedule: Q04DX003 (ip), vehicle: saline)?
The T/C was 103 % of control.

For CCCCn1cccc1, which T/C [5] is on record?
The T/C was 106 % of control.

What about the T/C [6] of the same compound?
The T/C was 95 % of control.
